Where a SMILES comes first, the peptide text is derived from it. [ ]: non-standard residue; d: D form. Hica(2S) = CC(C)C[C@H](O)C(=O)O; NMeL = CN[C@@H](CC(C)C)C(=O)O
Columns and labels:
[1] = reported on isolation, Fenical et al. (1998) Tetrahed. Letts. 39:2463-2466; cited from earlier work
[2] = test system: edema caused by phorbol 12-myristate 13-acetate (PMA) in mouse ear; test: Inhibition of mouse ear edema (PMA mouse ear model); type: in vivo, mice; settings: for inflammation caused by PMA (result in words): irritant phorbol 12-myristate 13-acetate (PMA)
Description: The efficacy of Exumolide compounds as an anti-inflammatory agent was established by the following assay. Exumolide A was topically applied in acetone to the inside pinnae of the ears of mice in a solution comprising an edema-causing irritant, phorbol 12-myristate 13-acetate (PMA). Specifically, 2 μg/ear of PMA alone or in combination with 50 μg/ear of Exumolide A was applied to the left ears (5 mice per treatment group) and acetone was applied to all right ears. After 3 hours, 20 minutes incubation, the mice were sacrificed, the ears removed and bores taken and weighed. Edema was measured by subtracting the weight of the right ear (acetone control) from the weight of the left ear (treated). Results were recorded as % decrease (inhibition) or % increase (potentiation) in edema relative to the PMA control group edema.

[3] = test system: cell proliferation; test: conventional [3H]-thymidine incorporation assays; type: cell-based
Source text: Thus, the present invention also provides a method of treating, preventing, or inhibiting inflammation or an inflammatory disease or disorder in a subject without inhibiting cell proliferation in the subject.

SMILES	antibiotic activity [1]	inflammation caused by PMA (result in words) [2]	inhibition of cell proliferation [3]	Edema (mg ± SEM) ([2]; 50 ug/ear topical in acetone with 2 μg/ear PMA, left minus right ear bore weight after 3 hours, 20 minutes)
CC(C)C[C@@H]1NC(=O)[C@@H]2CCCN2C(=O)[C@H](CC(C)C)OC(=O)[C@@H]2CCCN2C(=O)[C@H](Cc2ccccc2)NC(=O)[C@H](Cc2ccccc2)NC1=O [Exumolide B] (cyclo(FFP[Hica(2S)]PL))	exhibit antibiotic activity	prevent or inhibit inflammation	do not inhibit cell proliferation	
CC(C)C[C@@H]1OC(=O)[C@@H]2CCCN2C(=O)[C@H](Cc2ccccc2)NC(=O)[C@H](Cc2ccccc2)NC(=O)[C@H](CC(C)C)N(C)C(=O)[C@@H]2CCCN2C1=O [Exumolide A] (cyclo(FFP[Hica(2S)]P[NMeL]))	exhibit antibiotic activity	prevent or inhibit inflammation	do not inhibit cell proliferation	4.3 ± 1.0 mg

Source: US20030166516A1, “Methods of treating, preventing, or inhibiting inflammation with exumolide compounds” (priority 2001, published 2003)
